Where “and” joins values, the source holds several entries; their conditions need not be identical. Equal values may be shown once. Numbers after ± are expanded uncertainties.
Experiment: xn = mol fraction of the nth substance listed
Conditions: x2 = 0.79; for electrical conductivity / mass density: 100 kPa, Liquid; for electrical conductivity: Alternating current cell with electrodes; for mass density: Buoyancy - hydrostatic balance

[Ca+2].[F-].[F-] [calcium fluoride] + [F-].[Li+]
Conditions	electrical conductivity [S/m]	mass density
1131.2 K	0.05865 ± 0.00042	–
1131.4 K	–	2066.7 ± 7.1 kg/m3
1131.9 K	–	2066.7 ± 7.1 kg/m3
1132.7 K	–	2065.5 ± 7.1 kg/m3
1132.8 K	–	2066 ± 7.1 kg/m3
1133 K	0.05876 ± 0.00038	–
1133.3 K	–	2064.9 ± 8 kg/m3
1134.1 K	–	2064.2 ± 8.2 kg/m3
1134.2 K	–	2064.2 ± 8.1 kg/m3
1134.7 K	0.05888 ± 0.00044	–
1135 K	–	2063.5 ± 8.1 kg/m3
1135.3 K	–	2062.4 ± 7.9 kg/m3 and 2063 ± 7.9 kg/m3
1135.7 K	–	2062.4 ± 7.9 kg/m3
1136.2 K	–	2061.7 ± 8.1 kg/m3
1136.4 K	0.05912 ± 0.00048	–
1136.5 K	–	2060.6 ± 8.1 kg/m3
1136.8 K	–	2060.6 ± 8 kg/m3
1136.9 K	–	2061.1 ± 8.2 kg/m3
1137.2 K	–	2060 ± 8.3 kg/m3
1137.5 K	–	2061.6 ± 8 kg/m3
1137.8 K	–	2061 ± 8 kg/m3
1138.1 K	0.05927 ± 0.00054	–
1138.2 K	–	2060.4 ± 8 kg/m3
1138.7 K	–	2059.8 ± 8 kg/m3
1139.3 K	–	2059.2 ± 8.1 kg/m3
1139.9 K	0.05965 ± 0.00057	–
1140 K	–	2059.1 ± 7.9 kg/m3
1140.4 K	–	2058.5 ± 8 kg/m3
1140.8 K	–	2057.9 ± 7.8 kg/m3
1141.1 K	–	2057.3 ± 7.9 kg/m3
1141.4 K	–	2056.7 ± 7.8 kg/m3
1141.5 K	0.05989 ± 0.00057	–
1142 K	–	2056.6 ± 7.1 kg/m3
1142.7 K	–	2056 ± 7.1 kg/m3
1143.2 K	0.06013 ± 0.00052	–
1143.4 K	–	2055.4 ± 7.1 kg/m3
1143.5 K	–	2054.8 ± 7.1 kg/m3
1144.2 K	–	2054.7 ± 7.1 kg/m3
1144.4 K	–	2054.1 ± 7.1 kg/m3
1144.7 K	–	2053.5 ± 7.1 kg/m3
1144.9 K	0.06033 ± 0.00046	–
1145.2 K	–	2053.5 ± 7.1 kg/m3
1145.5 K	–	2052.9 ± 7.1 kg/m3
1146 K	–	2061.1 ± 7.1 kg/m3
1146.5 K	0.06057 ± 0.00043	2061.1 ± 7.1 kg/m3
1146.9 K	–	2060.5 ± 7.1 kg/m3
1147.5 K	–	2059.8 ± 7.1 kg/m3
1147.8 K	–	2059.2 ± 7.1 kg/m3
1148 K	–	2059.2 ± 7.1 kg/m3
1148.2 K	0.06057 ± 0.0004	–
1148.6 K	–	2058.6 ± 7.1 kg/m3
1148.9 K	–	2058 ± 7.1 kg/m3
1149 K	–	2058 ± 7.1 kg/m3
1149.7 K	–	2057.4 ± 7.1 kg/m3
1149.9 K	0.06079 ± 0.00041	–
1150.3 K	–	2056.7 ± 7.9 kg/m3
1150.8 K	–	2056.7 ± 8.1 kg/m3
1151.4 K	0.06095 ± 0.00043	2056.1 ± 8.2 kg/m3
1152 K	–	2055.4 ± 8.2 kg/m3
1152.6 K	–	2055.4 ± 8 kg/m3
1152.9 K	–	2054.8 ± 8 kg/m3
1153 K	0.06111 ± 0.00047	–
1153.8 K	–	2054.1 ± 7.9 kg/m3
1154.1 K	–	2053.5 ± 7.9 kg/m3
1154.5 K	0.06131 ± 0.00049	–
1154.6 K	–	2053.5 ± 7.9 kg/m3
1154.8 K	–	2052.3 ± 8.1 kg/m3 and 2052.9 ± 8.1 kg/m3
1155.5 K	–	2051.7 ± 8 kg/m3
1155.6 K	–	2051.7 ± 8 kg/m3
1155.9 K	–	2051.1 ± 8.1 kg/m3
1156.2 K	0.0616 ± 0.00046	–
1156.5 K	–	2050.5 ± 8 kg/m3
1156.6 K	–	2049.9 ± 8 kg/m3 and 2051 ± 8 kg/m3
1157.1 K	–	2050.4 ± 8.1 kg/m3
1157.5 K	–	2050.4 ± 8.1 kg/m3
1157.7 K	0.06168 ± 0.00045	2049.8 ± 8.1 kg/m3
1158.8 K	–	2049.1 ± 8 kg/m3
1159 K	–	2048.5 ± 7.8 kg/m3
1159.1 K	–	2048.5 ± 7.8 kg/m3
1159.2 K	0.06195 ± 0.00045	–
1159.9 K	–	2047.9 ± 7.8 kg/m3
1160.2 K	–	2047.3 ± 7.7 kg/m3
1160.7 K	0.06201 ± 0.00037	–
1161.3 K	–	2046.6 ± 7.2 kg/m3
1161.9 K	–	2046 ± 7.2 kg/m3
1162.1 K	0.062142 ± 4e-06	–
1162.8 K	–	2045.9 ± 7.2 kg/m3
1163.2 K	–	2045.3 ± 7.1 kg/m3

Conditions	surface tension liquid-gas [mN/m]
1151 K, Maximal bubble pressure	215.9 ± 10
